Legend:
MytiLec [1] = molecular target: T1, MytiLec (Mytilus galloprovincialis, UniProt B3EWR1, T39A); test: ITC, single-site model; crystal structure […] Å; type: binding; conditions: 10 mM HEPES pH 7.4, 100 mM NaCl, 298 K; averaged over three sites per monomer (one type of independent site); crystal shows alpha anomer at all six sites of the dimer
T1 construct: full-length from codon-optimised synthetic gene, initial Thr changed to Ala; N-terminal His6 tag cut by thrombin, product begins GSHMATF; E. coli BL21(DE3) RILP; homodimer 34 kDa

MytiLec [2] = molecular target: T1, MytiLec; test: ITC, single-site model; type: binding; conditions: 10 mM HEPES pH 7.4, 100 mM NaCl, 298 K; averaged over three sites per monomer (one type of independent site)
[3] = molecular target: MytiLec(F93DF94S) (Mytilus galloprovincialis)
[4] = molecular target: Recombinant MytiLec (Mytilus galloprovincialis); test: AUC; sedimentation velocity, 50 mM potassium phosphate pH 7.4, 0.1 M NaCl, 293 K, 50,000 rpm, absorbance at 280 nm, c(s) converted to c(M); wild-type protein

T1 sequence (B3EWR1 39-187 T39A): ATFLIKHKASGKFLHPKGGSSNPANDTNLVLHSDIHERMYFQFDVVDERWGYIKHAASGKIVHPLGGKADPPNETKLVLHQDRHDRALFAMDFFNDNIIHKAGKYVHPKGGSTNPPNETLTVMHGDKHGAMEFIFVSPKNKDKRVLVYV

**Q.** Which Kd (MytiLec [1]) does the source give for CC(=O)N[C@H]1C(O)O[C@H](CO)[C@H](O)[C@@H]1O (stereo partly shown) [GalNAc] here?
**A.** 130 µM

**Q.** With OC[C@H]1OC(O)[C@H](O)[C@@H](O)[C@H]1O (stereo partly shown) [galactose] as the molecule, how does the Kd (MytiLec [2]) read?
**A.** 200 µM

**Q.** How did the haemagglutination activity on rabbit erythrocytes, monomer mutant against the dimer (times less than the dimer) [3] turn out when MytiLec(F93DF94S) (natural protein) was run?
**A.** 10

**Q.** How did the stoichiometry N [4] turn out when Recombinant MytiLec (natural protein) was run?
**A.** 2

— PMC4913266, “Crystal structure of MytiLec, a galactose-binding lectin from the mussel Mytilus galloprovincialis with cytotoxicity against certain cancer cell types” (Scientific Reports, 2016)
